Assay results published in PubChem BioAssay (NCI).
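Dose response: 5 concentrations. Exposure: 48 h. Format: 96-well plates. Endpoint: linear interpolation; highest concentration if not reached. At the TGI there is no net growth.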

Tests used:
Assay in all cases: inhibition of tumour cell growth, NCI panel, 48 h
DU-145 prostate = tested on: DU-145 prostate
MDA-MB-231 breast = tested on: MDA-MB-231 breast
MDA-MB-435 = tested on: MDA-MB-435
MOLT-4 leukemia = tested on: MOLT-4 leukemia
RXF 393 renal = tested on: RXF 393 renal
SF-539 CNS = tested on: SF-539 CNS
SR leukemia = tested on: SR leukemia
T-47D breast = tested on: T-47D breast
U251 CNS = tested on: U251 CNS
UO-31 renal = tested on: UO-31 renal

SMILES | TGI (DU-145 prostate) [µM] | TGI (MDA-MB-231 breast) [µM] | TGI (MDA-MB-435) [µM] | TGI (MOLT-4 leukemia) [µM] | TGI (RXF 393 renal) [µM] | TGI (SF-539 CNS) [µM] | TGI (SR leukemia) [µM] | TGI (T-47D breast) [µM] | TGI (U251 CNS) [µM] | TGI (UO-31 renal) [µM]
Cc1c(C)c2c(c(N)c1C#N)C(=O)N(OS(=O)(=O)c1ccccc1)C2=O | 64.3 | > 100 | 58.8 | 87 | 30.7 | 34.2 | > 100 | 20 | 49.5 | > 100
O=C1C=C(N2CCCC2)C(=O)c2c(O)ccc(O)c21 | > 10 | > 10 | > 1 | > 10 | > 10 | > 10 | > 1 | > 10 | > 1 | > 10
Nc1nc2cc(CNc3ccc(C(=O)O)cc3)ccc2nc1-c1ccccc1 | > 100 | > 100 | > 100 | > 100 | > 100 | > 100 | > 100 | > 100 | > 100 | > 100
CC(/C=N/N(C)C1=NCCCCN1)=N/N(C)C1=NCCCCN1 | > 100 | > 100 | > 100 | > 100 | > 100 | > 100 | > 100 | > 100 | > 100 | > 100
O=C1c2n[nH]nc2C(=O)c2n[nH]nc21 | > 100 | > 100 | > 100 | > 100 | > 100 | > 100 | > 100 | > 100 | > 100 | > 100
Cc1c(NC(=S)N/N=C\C(=N/NC(=S)Nc2c(C)n(C)n(-c3ccccc3)c2=O)c2ccccc2)c(=O)n(-c2ccccc2)n1C | > 100 | > 100 | > 100 | > 100 | > 100 | > 100 | > 100 | > 100 | > 100 | > 100
c1ccc2c(c1)nc1n2CCNC1 | > 100 | > 100 | > 100 | > 100 | > 100 | > 100 | > 100 | > 100 | > 100 | > 100
O=C1OC(C2Cc3ccccc3C2=O)c2ccccc21 (stereo not given) | > 100 | > 100 | > 100 | > 100 | > 100 | > 100 | > 100 | > 100 | > 100 | > 100
N#Cc1ccc(/C=N/NC(=O)CSCC(=O)N/N=C/c2ccc(C#N)cc2)cc1 | > 100 | 81.7 | > 100 | > 100 | > 100 | > 100 | > 100 | > 100 | > 100 | > 100
CC(C)=NNc1cnnc2ccc([N+](=O)[O-])cc12 | > 100 | > 100 | > 100 | > 100 | > 100 | > 100 | > 100 | > 100 | > 100 | > 100
CN1c2ccccc2C(=O)NC12CCN(Cc1ccccc1)CC2 | > 100 | > 100 | > 100 | > 100 | > 100 | > 100 | > 100 | > 100 | > 100 | > 100
CC(=O)OC(CC(C)C)P1(=O)N(CC(C)(C)C)[C@@H]2CCCC[C@H]2N1CC(C)(C)C (stereo not given in full) | 29.4 | 19.7 | 25.3 | 25.3 | 18.1 | 22.3 | 30.4 | 19.7 | 20.1 | 21.2
CC(=O)[C@H]1CC[C@H]2[C@@H]3CCC4=CC(=O)CC[C@]4(C)[C@H]3CC[C@]12C | 94.3 | 33.2 | 39.3 | 35.2 | 57.9 | 34.1 | > 100 | 57.8 | 34.1 | 26.4
N#Cc1nc(C(F)(F)F)oc1N | > 100 | > 100 | > 100 | > 100 | > 100 | > 100 | > 100 | > 100 | > 100 | > 100
O=c1c2ncn(C3CCCCO3)c2n(-c2ccccc2)c(=S)n1-c1ccccc1 (stereo not given) | > 100 | 73.5 | > 100 | > 100 | 25.4 | 32.4 | > 100 | > 77.3 | > 74.2 | > 71.4
